Data published in the supplement of paper PMC11208160.

Test: recombinant UMI read abundance after kanamycin selection (control-corrected) (log10(CPM+1)); higher = more efficient recombination; extreme values may be limits of the assay; sequences stand for … in AGTGCAGAGAAAATCGGCCAGTTTTCTCTGCCTGCAGTCCGCATGCCGTGGGACCCCTTGGGTTCTAACCTGTTGCCTAGATTTATGCAGCGGACTGCCTTTCTCCCAAAGTGATAAACCGG…AGGTTGGTTTCACT; site = the 11-nt donor
Outline: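 Each donor and donor-binding-loop pair was tracked by a 12-nt UMI on a plasmid carrying a promoterless kanamycin gene. With a second plasmid supplying a fixed target and T7-inducible IS621 bridge recombinase, the pool was plated in Escherichia coli on IPTG (0.07 mM) plus kanamycin or unselected. Sequencing of recombinant UMIs across the donor–target junction gave counts expressed as log10(CPM+1) after replicate averaging and control-derived scaling.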
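Also: IS621 bridge recombinase in Escherichia coli cells against a fixed T5 target plasmid.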

Compared with “TCTTTAGCATGGACCGGTTTTCCCGGTAATCCGTATTTGCA (site TCTTTAGCTTG)”, “TGAAAGACATGGACCGGTTTTCCCGGTAATCCGTATTTGTA (site TGAAAGACTTA)” is higher in “recombinant UMI read abundance (log10)” value: 0 for the first, 2.37 for the second.

Going from “TGAACACCATGGACCGGTTTTCCCGGTAATCCGTATTTGCA (site TGAACACCTTG)” to “TGAACATCATGGACCGGTTTTCCCGGTAATCCGTATTTGGC (site TGAACATCTGC)”, the “recombinant UMI read abundance (log10)” value rises from 0.302 to 1.37.

Going from “TGAACGACATGGACCGGTTTTCCCGGTAATCCGTATTTGGA (site TGAACGACTTC)” to “TGAAGAGCATGGACCGGTTTTCCCGGTAATCCGTATTTGCC (site TGAAGAGCTGG)”, the “recombinant UMI read abundance (log10)” value rises from 0.221 to 1.62.

Going from “TGAAGCACATGGACCGGTTTTCCCGGTAATCCGTATTTGCG (site TGAAGCACTCG)” to “TGAATCACATGGACCGGTTTTCCCGGTAATCCGTATTTGAA (site CACGCGCCTGA)”, the “recombinant UMI read abundance (log10)” value falls from 1.18 to 0.00781.

First: TGACATTCATGGACCGGTTTTCCCGGTAATCCGTATTTGCC (site TGACATTCTGG)
Second: TGACCCGCATGGACCGGTTTTCCCGGTAATCCGTATTTGAC (site CAGATACCTCC)
The “recombinant UMI read abundance (log10)” value of the first is higher: 2.22 for the first, 0.00655 for the second.

“TGACGAACATGGACCGGTTTTCCCGGTAATCCGTATTTGGT (site TGACGAACTAC)” and “TGACGCTCATGGACCGGTTTTCCCGGTAATCCGTATTTGCG (site TGACGCTCTCG)” are within 0.2 log units of each other in “recombinant UMI read abundance (log10)” value: 1.16 for the first, 1.33 for the second.

Compared with “TGACTGCCATGGACCGGTTTTCCCGGTAATCCGTATTTGAA (site TGACTGCCTTT)”, “TGACTGGCATGGACCGGTTTTCCCGGTAATCCGTATTTGTA (site TGACTGGCTTA)” is higher in “recombinant UMI read abundance (log10)” value: 0.0135 for the first, 1.34 for the second.

Going from “TGACTGTCATGGACCGGTTTTCCCGGTAATCCGTATTTGAT (site TGACTGTCTAT)” to “TGACTTTCATGGACCGGTTTTCCCGGTAATCCGTATTTGAG (site TGACTTTCTCT)”, the “recombinant UMI read abundance (log10)” value falls from 0.245 to 0.

First: TGAGCGTCATGGACCGGTTTTCCCGGTAATCCGTATTTGAC (site TGAGCGTCTGT)
Second: TGAGCTACATGGACCGGTTTTCCCGGTAATCCGTATTTGTC (site GCGAACTCTCC)
The “recombinant UMI read abundance (log10)” value of the first is higher: 1.7 for the first, 0 for the second.

“TGAGGACCATGGACCGGTTTTCCCGGTAATCCGTATTTGGG (site AGAGGACCTCC)” and “TGAGGACCATGGACCGGTTTTCCCGGTAATCCGTATTTGGG (site CGAGGACCTCC)” are within 0.2 log units of each other in “recombinant UMI read abundance (log10)” value: 0.0068 for the first, 0.00688 for the second.

“TGAGGACCATGGACCGGTTTTCCCGGTAATCCGTATTTGGG (site GGAGGACCTCC)” and “TGAGGACCATGGACCGGTTTTCCCGGTAATCCGTATTTGGG (site TGAGGACCTCC)” are within 0.2 log units of each other in “recombinant UMI read abundance (log10)” value: 0.0165 for the first, 0.0291 for the second.

Going from “TGAGGACCATGGACCGGTTTTCCCGGTAATCCGTATTTGGT (site TGAGGACCTAC)” to “TGAGGAGCATGGACCGGTTTTCCCGGTAATCCGTATTTGGT (site TGAGGAGCTAC)”, the “recombinant UMI read abundance (log10)” value rises from 0.00901 to 1.12.

Compared with “TGAGGCTCATGGACCGGTTTTCCCGGTAATCCGTATTTGGT (site TGAGGCTCTAC)”, “TGAGTTTCATGGACCGGTTTTCCCGGTAATCCGTATTTGCT (site TGAGTTTCTAG)” is lower in “recombinant UMI read abundance (log10)” value: 1.76 for the first, 1.54 for the second.

First: TGATACTCATGGACCGGTTTTCCCGGTAATCCGTATTTGCA (site TAATACTCTTG)
Second: TGATACTCATGGACCGGTTTTCCCGGTAATCCGTATTTGCA (site TCATACTCTTG)
The “recombinant UMI read abundance (log10)” value of the first is higher: 2.38 for the first, 1.29 for the second.

Going from “TGATACTCATGGACCGGTTTTCCCGGTAATCCGTATTTGCA (site TGATACTCTTG)” to “TGATACTCATGGACCGGTTTTCCCGGTAATCCGTATTTGCA (site TTATACTCTTG)”, the “recombinant UMI read abundance (log10)” value falls from 2.51 to 1.96.

Compared with “TGATCATCATGGACCGGTTTTCCCGGTAATCCGTATTTGCG (site CGATCATCTAG)”, “TGATCATCATGGACCGGTTTTCCCGGTAATCCGTATTTGCG (site TGATCATCTCG)” is higher in “recombinant UMI read abundance (log10)” value: 0 for the first, 1.27 for the second.

“TGATCGACATGGACCGGTTTTCCCGGTAATCCGTATTTGTT (site AGATCGACTAA)” and “TGATCGACATGGACCGGTTTTCCCGGTAATCCGTATTTGTT (site CGATCGACTAA)” are within 0.2 log units of each other in “recombinant UMI read abundance (log10)” value: 0.0146 for the first, 0.0214 for the second.

“TGATCGACATGGACCGGTTTTCCCGGTAATCCGTATTTGTT (site GGATCGACTAA)” and “TGATCGACATGGACCGGTTTTCCCGGTAATCCGTATTTGTT (site TGATCGACTAA)” are within 0.2 log units of each other in “recombinant UMI read abundance (log10)” value: 0.0286 for the first, 0.0254 for the second.

First: TGATTATCATGGACCGGTTTTCCCGGTAATCCGTATTTGAA (site TGATTATCTTT)
Second: TGCACAGCATGGACCGGTTTTCCCGGTAATCCGTATTTGGC (site TGCACAGCTGC)
The “recombinant UMI read abundance (log10)” value of the first is higher: 1.32 for the first, 1.05 for the second.

First: TGCATATCATGGACCGGTTTTCCCGGTAATCCGTATTTGAC (site TGCATATCTGT)
Second: TGCATCCCATGGACCGGTTTTCCCGGTAATCCGTATTTGAC (site TGCATCCCTGT)
The “recombinant UMI read abundance (log10)” value of the first is higher: 1.25 for the first, 0.448 for the second.

“TGCATGCCATGGACCGGTTTTCCCGGTAATCCGTATTTGGT (site TGCATGCCTAC)” and “TGCCAATCATGGACCGGTTTTCCCGGTAATCCGTATTTGTG (site TGCCAATCTCA)” are within 0.2 log units of each other in “recombinant UMI read abundance (log10)” value: 0.0134 for the first, 0.0694 for the second.

First: TGCCACACATGGACCGGTTTTCCCGGTAATCCGTATTTGAG (site TGCCACACTCT)
Second: TGCCCCGCATGGACCGGTTTTCCCGGTAATCCGTATTTGTT (site TGCCCCGCTAA)
The “recombinant UMI read abundance (log10)” value of the first is higher: 0.305 for the first, 0.0107 for the second.

First: TGCCGATCATGGACCGGTTTTCCCGGTAATCCGTATTTGGT (site TGCCGATCTAC)
Second: TGCCGCTCATGGACCGGTTTTCCCGGTAATCCGTATTTGGA (site TGCCGCTCTTC)
The “recombinant UMI read abundance (log10)” value of the first is lower: 0 for the first, 0.324 for the second.

Compared with “TGCCGGTCATGGACCGGTTTTCCCGGTAATCCGTATTTGCA (site TGCCGGTCTTG)”, “TGCCGTTCATGGACCGGTTTTCCCGGTAATCCGTATTTGAT (site TGCCGTTCTAT)” is lower in “recombinant UMI read abundance (log10)” value: 1.45 for the first, 0 for the second.

Going from “TGCCTCGCATGGACCGGTTTTCCCGGTAATCCGTATTTGAT (site TGCCTCGCTAT)” to “TGCGTCACATGGACCGGTTTTCCCGGTAATCCGTATTTGCC (site TGCGTCACTGG)”, the “recombinant UMI read abundance (log10)” value rises from 0.0124 to 1.97.

Going from “TGCTAATCATGGACCGGTTTTCCCGGTAATCCGTATTTGCT (site TGCTAATCTAG)” to “TGCTAGGCATGGACCGGTTTTCCCGGTAATCCGTATTTGGG (site TGCTAGGCTAC)”, the “recombinant UMI read abundance (log10)” value falls from 1.08 to 0.0327.

“TGCTAGGCATGGACCGGTTTTCCCGGTAATCCGTATTTGGG (site TGCTAGGCTCC)” and “TGCTAGGCATGGACCGGTTTTCCCGGTAATCCGTATTTGGG (site TGCTAGGCTGC)” are within 0.2 log units of each other in “recombinant UMI read abundance (log10)” value: 0.00935 for the first, 0 for the second.

“TGCTAGGCATGGACCGGTTTTCCCGGTAATCCGTATTTGGG (site TGCTAGGCTTC)” and “TGCTAGTCATGGACCGGTTTTCCCGGTAATCCGTATTTGAC (site TGCTAGTCTGT)” are within 0.2 log units of each other in “recombinant UMI read abundance (log10)” value: 0.00914 for the first, 0 for the second.

In the case of “TGCTCAACATGGACCGGTTTTCCCGGTAATCCGTATTTGGC (site TGCTCAACTGC)”, the “recombinant UMI read abundance (log10)” value is reported as 0.
